Earlier results in patent publication US6514536B2, “Drug preparations for treating sexual dysfunction” (L.A.M. Pharmaceutical Corporation, priority 1998, dated 2003).

Assays:
[1] = most abundant metabolite in plasma
[2] = tested on: isolated cavernosal artery segments; details: segments pre-contracted with noreginephrine or prostaglandin E2α
penile blood flow = details: duplex sonography
erection = details: men who failed prior intracavernous therapy with papaverine and phentolamine
blood pressure = details: intravenous doses of 1 to 10 micrograms per kilogram of body weight
[3] = tested on: isolated corpus cavernosum and corpus spongiosum preparations; details: in vitro

In the case of `CCCCCC(=O)CC[C@H]1[C@H](O)CC(=O)[C@@H]1CCCCCCC(=O)O` [DKH-PGE1, 13,14-dihydro,15-keto PGE1], the biological activity [1] is listed as “biologically inactive”.

In the case of `CCCCC[C@H](O)/C=C/[C@H]1[C@H](O)CC(=O)[C@@H]1CCCCCCC(=O)O` [PGE1, prostaglandin E1], the vasodilation [2] is listed as “vasodilation has been demonstrated”, the “increase in penile blood flow compared with papaverine” value (penile blood flow) is listed as “at least as effective as papaverine” and the “share of men achieving adequate erections” value (erection) is listed as “two-thirds”. For the same molecule, the “effect on blood pressure” value (blood pressure) was “lower blood pressure” and the smooth muscle relaxation [3] was “dose-dependent smooth muscle relaxation”.
